Test results from US9346798B2, “Dihydrobenzoxazine and tetrahydroquinoxaline sodium channel inhibitors” (AMGEN INC., priority 2012, dated 2016).

Key:
Type in all cases: cell-based
Nav 1.7 [1] = target: T1, Nav 1.7 (Homo sapiens (Human), UniProt Q15858); assay: Nav 1.7 in vitro PX assay, PatchXpress whole cell voltage clamp; settings: HEK 293 cells stably transfected with human Nav1.7; for IC50: partially inactivated state (20 to 50% inactivation); for inhibition at 4.9 µM: HEK293, values marked *, read-out: Nav 1.7 PX percent inhibition at 4.9 μM
How it was run: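 HEK293 cells stably expressing human Nav1.7, whole-cell voltage clamp at a holding potential giving 20–50% inactivation; currents elicited by 20 msec pulses to −10 mV at 0.1 Hz.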

Nav 1.7 [2] = target: T1, Nav 1.7; assay: Nav 1.7 in vitro assay, IonWorks Quattro (IWQ) population patch-clamp; settings: HEK 293 cells stably transfected with Nav 1.7; 26th pulse to -20 mV
Nav 1.5 = Nav 1.5 (Homo sapiens (Human), UniProt Q14524); assay: Nav 1.5 in vitro assay, IonWorks Quattro (IWQ) population patch-clamp; settings: HEK 293 cells stably transfected with Nav 1.5; 26th pulse to -20 mV
Sequence of Nav 1.5 (Q14524 whole entry): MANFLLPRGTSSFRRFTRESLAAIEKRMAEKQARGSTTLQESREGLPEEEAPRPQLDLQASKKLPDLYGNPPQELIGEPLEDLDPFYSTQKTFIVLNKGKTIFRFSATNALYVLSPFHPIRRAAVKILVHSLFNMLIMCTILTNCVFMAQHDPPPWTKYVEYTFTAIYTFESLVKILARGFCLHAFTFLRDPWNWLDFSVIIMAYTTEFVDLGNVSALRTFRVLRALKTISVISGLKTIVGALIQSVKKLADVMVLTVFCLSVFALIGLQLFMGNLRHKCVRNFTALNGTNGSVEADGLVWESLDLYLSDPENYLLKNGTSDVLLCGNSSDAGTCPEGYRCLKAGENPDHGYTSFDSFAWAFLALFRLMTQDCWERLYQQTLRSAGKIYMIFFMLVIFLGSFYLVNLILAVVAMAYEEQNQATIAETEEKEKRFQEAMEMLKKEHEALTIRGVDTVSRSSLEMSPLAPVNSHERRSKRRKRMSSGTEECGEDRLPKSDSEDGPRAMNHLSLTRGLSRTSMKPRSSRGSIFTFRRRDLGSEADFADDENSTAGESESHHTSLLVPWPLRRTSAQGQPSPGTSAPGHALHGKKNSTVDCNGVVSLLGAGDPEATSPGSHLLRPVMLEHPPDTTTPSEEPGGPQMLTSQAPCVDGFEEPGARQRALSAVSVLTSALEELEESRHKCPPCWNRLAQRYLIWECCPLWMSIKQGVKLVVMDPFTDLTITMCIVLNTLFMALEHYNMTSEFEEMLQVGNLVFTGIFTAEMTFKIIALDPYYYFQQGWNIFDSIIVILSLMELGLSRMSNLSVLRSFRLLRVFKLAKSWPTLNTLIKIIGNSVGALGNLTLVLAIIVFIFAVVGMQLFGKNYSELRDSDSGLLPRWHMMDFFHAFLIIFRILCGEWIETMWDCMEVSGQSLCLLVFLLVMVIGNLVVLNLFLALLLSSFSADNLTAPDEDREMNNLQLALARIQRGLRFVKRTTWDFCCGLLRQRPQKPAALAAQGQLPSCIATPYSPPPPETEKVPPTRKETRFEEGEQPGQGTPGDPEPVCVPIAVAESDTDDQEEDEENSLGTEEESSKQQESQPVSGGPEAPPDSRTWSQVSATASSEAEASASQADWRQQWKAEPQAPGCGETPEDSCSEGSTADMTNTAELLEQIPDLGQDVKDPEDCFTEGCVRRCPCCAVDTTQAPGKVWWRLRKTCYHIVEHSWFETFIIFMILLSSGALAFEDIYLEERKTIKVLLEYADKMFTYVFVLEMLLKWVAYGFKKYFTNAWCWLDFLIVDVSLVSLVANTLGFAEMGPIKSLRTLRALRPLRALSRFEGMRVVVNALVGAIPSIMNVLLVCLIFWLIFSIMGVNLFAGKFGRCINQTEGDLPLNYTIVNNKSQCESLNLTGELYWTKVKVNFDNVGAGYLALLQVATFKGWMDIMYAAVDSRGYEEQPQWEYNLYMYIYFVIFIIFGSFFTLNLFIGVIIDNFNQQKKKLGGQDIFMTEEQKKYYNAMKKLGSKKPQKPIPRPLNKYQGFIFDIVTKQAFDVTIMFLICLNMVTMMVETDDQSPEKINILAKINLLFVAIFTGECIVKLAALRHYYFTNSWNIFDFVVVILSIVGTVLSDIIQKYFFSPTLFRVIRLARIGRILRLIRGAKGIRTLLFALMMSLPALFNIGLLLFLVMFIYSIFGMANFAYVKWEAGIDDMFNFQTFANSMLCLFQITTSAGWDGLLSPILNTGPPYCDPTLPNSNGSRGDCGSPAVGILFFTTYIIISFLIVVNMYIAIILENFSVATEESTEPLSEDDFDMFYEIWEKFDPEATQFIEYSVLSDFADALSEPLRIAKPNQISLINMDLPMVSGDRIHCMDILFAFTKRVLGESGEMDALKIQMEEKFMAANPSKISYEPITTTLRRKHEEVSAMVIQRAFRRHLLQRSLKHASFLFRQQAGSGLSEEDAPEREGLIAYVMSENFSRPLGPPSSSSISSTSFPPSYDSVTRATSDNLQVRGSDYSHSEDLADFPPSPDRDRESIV

T1 sequence (Q15858 whole entry): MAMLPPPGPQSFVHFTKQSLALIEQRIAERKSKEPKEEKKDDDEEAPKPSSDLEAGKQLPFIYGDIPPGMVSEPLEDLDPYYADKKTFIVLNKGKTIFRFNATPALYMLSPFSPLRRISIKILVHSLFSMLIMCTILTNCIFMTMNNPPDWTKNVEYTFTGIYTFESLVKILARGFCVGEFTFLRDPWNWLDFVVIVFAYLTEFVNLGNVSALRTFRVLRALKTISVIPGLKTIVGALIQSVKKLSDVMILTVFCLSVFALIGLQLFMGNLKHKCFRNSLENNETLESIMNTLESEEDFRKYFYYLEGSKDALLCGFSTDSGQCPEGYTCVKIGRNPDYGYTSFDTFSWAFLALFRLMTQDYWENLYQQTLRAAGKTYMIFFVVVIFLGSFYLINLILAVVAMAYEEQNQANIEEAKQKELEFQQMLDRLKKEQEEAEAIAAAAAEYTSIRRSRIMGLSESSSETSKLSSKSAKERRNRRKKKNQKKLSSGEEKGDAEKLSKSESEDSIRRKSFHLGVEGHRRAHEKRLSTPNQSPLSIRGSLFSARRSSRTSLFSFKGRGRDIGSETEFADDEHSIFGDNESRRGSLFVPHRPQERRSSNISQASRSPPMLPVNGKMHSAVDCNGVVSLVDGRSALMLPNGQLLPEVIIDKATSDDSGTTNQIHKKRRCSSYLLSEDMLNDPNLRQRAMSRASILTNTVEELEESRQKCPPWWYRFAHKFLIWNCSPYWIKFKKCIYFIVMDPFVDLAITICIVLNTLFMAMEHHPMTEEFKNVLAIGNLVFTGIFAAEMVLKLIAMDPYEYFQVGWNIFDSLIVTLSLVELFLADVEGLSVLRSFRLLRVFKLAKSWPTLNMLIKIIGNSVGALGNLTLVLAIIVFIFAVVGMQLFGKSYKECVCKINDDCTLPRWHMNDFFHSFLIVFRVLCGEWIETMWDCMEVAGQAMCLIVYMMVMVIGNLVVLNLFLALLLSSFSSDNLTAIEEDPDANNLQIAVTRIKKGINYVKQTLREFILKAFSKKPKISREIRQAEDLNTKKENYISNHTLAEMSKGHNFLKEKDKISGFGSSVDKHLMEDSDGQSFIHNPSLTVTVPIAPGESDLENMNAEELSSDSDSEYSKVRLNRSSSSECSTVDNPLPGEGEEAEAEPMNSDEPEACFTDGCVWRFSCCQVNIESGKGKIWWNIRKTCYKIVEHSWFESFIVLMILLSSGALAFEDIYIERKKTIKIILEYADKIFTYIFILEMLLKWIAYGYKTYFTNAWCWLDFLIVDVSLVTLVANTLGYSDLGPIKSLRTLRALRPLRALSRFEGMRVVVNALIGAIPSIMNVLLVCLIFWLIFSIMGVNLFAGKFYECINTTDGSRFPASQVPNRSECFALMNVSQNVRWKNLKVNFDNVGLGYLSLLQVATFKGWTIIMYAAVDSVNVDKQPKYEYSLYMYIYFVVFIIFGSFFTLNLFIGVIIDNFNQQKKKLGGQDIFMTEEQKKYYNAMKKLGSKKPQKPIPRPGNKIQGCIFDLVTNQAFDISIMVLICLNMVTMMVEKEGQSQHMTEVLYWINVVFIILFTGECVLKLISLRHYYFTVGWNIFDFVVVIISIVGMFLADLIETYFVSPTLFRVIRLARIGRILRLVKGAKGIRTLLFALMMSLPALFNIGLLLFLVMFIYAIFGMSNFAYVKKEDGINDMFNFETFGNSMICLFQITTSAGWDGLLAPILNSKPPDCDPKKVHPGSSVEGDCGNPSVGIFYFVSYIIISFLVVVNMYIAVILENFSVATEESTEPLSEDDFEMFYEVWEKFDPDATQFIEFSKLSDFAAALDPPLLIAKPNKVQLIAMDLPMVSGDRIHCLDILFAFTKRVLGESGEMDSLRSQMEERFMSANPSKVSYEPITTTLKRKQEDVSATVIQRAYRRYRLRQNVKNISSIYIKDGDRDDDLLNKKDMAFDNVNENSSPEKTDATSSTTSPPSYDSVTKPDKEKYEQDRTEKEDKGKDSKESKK

| SMILES | IC50 (Nav 1.7 [1]) [nM] | IC50 (Nav 1.7 [2]) [nM] | IC50 (Nav 1.5) [µM] | inhibition at 4.9 µM (Nav 1.7 [1]) [%] |
| --- | --- | --- | --- | --- |
| O=S(=O)(Nc1nccs1)c1ccc2c(c1)OCCN2c1ccccc1-c1ccncc1 [Example 147, 4-(2-(Pyridin-4-yl)phenyl)-N-(thiazol-2-yl)-3,4-dihydro-2H-benzo[b][1,4]oxazine-7-sulfonamide] | 1990 | 107 | > 10 | – |
| O=S(=O)(Nc1nccs1)c1ccc2c(c1)OCCN2c1ccc(C(F)(F)F)cc1Cl [Example 5, 4-(2-Chloro-4-(Trifluoromethyl)Phenyl)-N-(Thiazol-2-Yl)-3,4-Dihydro-2H-Benzo[B][1,4]Oxazine-7-Sulfonamide] | 322 | 245 | 4.03 | – |
| N#Cc1cc(C(F)(F)F)ccc1N1CCOc2cc(S(=O)(=O)Nc3nccs3)ccc21 [Example 49, 4-(2-Cyano-4-(Trifluoromethyl)Phenyl)-N-(Thiazol-2-Yl)-3,4-Dihydro-2H-Benzo[B][1,4]Oxazine-7-Sulfonamide] | 193 | 15 | 1.15 | – |
| N#Cc1ccccc1N1CCOc2cc(S(=O)(=O)Nc3nccs3)ccc21 [Example 58, 4-(2-Cyanophenyl)-N-(Thiazol-2-Yl)-3,4-Dihydro-2H-Benzo[B][1,4]Oxazine-7-Sulfonamide 2,2,2-Trifluoroacetate] | 2550 | 225 | 6.3 | – |
| CCC1CN(c2ccc(C(F)(F)F)cc2C#N)c2ccc(S(=O)(=O)Nc3nccs3)cc2O1 (single isomer, unassigned) [Example 102] | 8890 | 1390 | > 10 | – |
| CC1COc2cc(S(=O)(=O)Nc3nccs3)ccc2N1c1ccc(C(F)(F)F)cc1C#N (racemic) [Example 96, 4-(2-Cyano-4-(Trifluoromethyl)Phenyl)-3-Methyl-N-(Thiazol-2-Yl)-3,4-Dihydro-2H-Benzo[B][1,4]Oxazine-7-Sulfonamide] | 1890 | 823 | 1.4 | – |
| O=S(=O)(Nc1ccno1)c1ccc2c(c1)OCCN2c1ccc(C(F)(F)F)cc1Cl [Example 55, 4-(2-Chloro-4-(Trifluoromethyl)Phenyl)-N-(Isoxazol-5-Yl)-3,4-Dihydro-2H-Benzo[B][1,4]Oxazine-7-Sulfonamide] | 19900 | 2920 | > 10 | – |
| O=S(=O)(Nc1ncns1)c1ccc2c(c1)OCCN2c1ccccc1 [Example 30, 4-Phenyl-N-(1,2,4-Thiadiazol-5-Yl)-3,4-Dihydro-2H-Benzo[B][1,4]Oxazine-7-Sulfonamide] | 756 | 142 | > 10 | – |
| N#Cc1cccc(F)c1N1CCOc2cc(S(=O)(=O)Nc3nccs3)ccc21 [Example 159, 4-(2-Cyano-6-Fluorophenyl)-N-(Thiazol-2-Yl)-3,4-Dihydro-2H-Benzo[B][1,4]Oxazine-7-Sulfonamide] | 8150 | 1420 | > 10 | – |
| N#CCc1cccc(N2CCOc3cc(S(=O)(=O)Nc4nccs4)ccc32)c1 [Example 174, 4-(3-(Cyanomethyl)Phenyl)-N-(Thiazol-2-Yl)-3,4-Dihydro-2H-Benzo[B][1,4]Oxazine-7-Sulfonamide 2,2,2-Trifluoroacetate] | 822 | 211 | 2.01 | – |
| COc1cc(Cl)ccc1N1C[C@H](C)Oc2cc(S(=O)(=O)Nc3nccs3)ccc21 (single isomer, unassigned) [Example 104] | 657 | 110 | > 10 | – |
| N#Cc1ccccc1N1CCOc2cc(S(=O)(=O)Nc3ncns3)ccc21 [Example 57, 4-(2-Cyanophenyl)-N-(1,2,4-Thiadiazol-5-Yl)-3,4-Dihydro-2H-Benzo[B][1,4]Oxazine-7-Sulfonamide] | 1930 | 154 | 6.7 | – |
| Cc1cc(N2CCOc3cc(S(=O)(=O)Nc4nccs4)ccc32)ccc1Cl [Example 156, 4-(4-Chloro-3-Methylphenyl)-N-(Thiazol-2-Yl)-3,4-Dihydro-2H-Benzo[B][1,4]Oxazine-7-Sulfonamide 2,2,2-Trifluoroacetate] | 2600 | 2280 | 3.93 | – |
| COc1ccc(C#N)c(N2CCOc3cc(S(=O)(=O)Nc4nccs4)ccc32)c1 [Example 189, 4-(2-Cyano-5-Methoxyphenyl)-N-(Thiazol-2-Yl)-3,4-Dihydro-2H-Benzo[B][1,4]Oxazine-7-Sulfonamide] | 3100 | 385 | 7.59 | – |
| Cc1ccc(C#N)c(N2CCOc3cc(S(=O)(=O)Nc4nccs4)ccc32)c1 [Example 194, 4-(2-Cyano-5-Methylphenyl)-N-(Thiazol-2-Yl)-3,4-Dihydro-2H-Benzo[B][1,4]Oxazine-7-Sulfonamide] | 1370 | 163 | 3.59 | – |
| CC[C@H]1CN(c2ccc(C(F)(F)F)cc2C#N)c2ccc(S(=O)(=O)Nc3nccs3)cc2O1 (single isomer, unassigned) [Example 101] | 3630 | 367 | 8.5 | – |

| SMILES | IC50 (Nav 1.7 [1]) [nM] | IC50 (Nav 1.7 [2]) [nM] | IC50 (Nav 1.5) [µM] | inhibition at 4.9 µM (Nav 1.7 [1]) [%] |
| --- | --- | --- | --- | --- |
| O=S(=O)(Nc1ccccn1)c1ccc2c(c1)OCCN2c1ccc(C(F)(F)F)cc1Br [Example 60, 4-(2-Bromo-4-(Trifluoromethyl)Phenyl)-N-(Pyridin-2-Yl)-3,4-Dihydro-2H-Benzo[B][1,4]Oxazine-7-Sulfonamide] | – | 1470 | > 10 | 24.4 |
| Cc1ccc(Cl)cc1N1CCOc2cc(S(=O)(=O)Nc3nccs3)ccc21 [Example 178, 4-(5-Chloro-2-Methylphenyl)-N-(Thiazol-2-Yl)-3,4-Dihydro-2H-Benzo[B][1,4]Oxazine-7-Sulfonamide 2,2,2-Trifluoroacetate] | 678 | 129 | 5.6 | – |
| O=S(=O)(Nc1nccs1)c1ccc2c(c1)OCCN2c1ccc2ncccc2c1 [Example 66, 4-(Quinolin-6-Yl)-N-(Thiazol-2-Yl)-3,4-Dihydro-2H-Benzo[B][1,4]Oxazine-7-Sulfonamide 2,2,2-Trifluoroacetate] | – | 3730 | > 10 | 22.8 |
| O=S(=O)(Nc1nccs1)c1ccc2c(c1)OCCN2c1cc(Cl)ccc1Cl [Example 180, 4-(2,5-Dichlorophenyl)-N-(Thiazol-2-Yl)-3,4-Dihydro-2H-Benzo[B][1,4]Oxazine-7-Sulfonamide 2,2,2-Trifluoroacetate] | 850 | 104 | 6.94 | – |
| O=S(=O)(Nc1nccs1)c1ccc2c(c1)OCCN2c1ccc(C(F)(F)F)cc1CO [Example 206, 4-(2-(hydroxymethyl)-4-(trifluoromethyl)phenyl)-N-(thiazol-2-yl)-3,4-dihydro-2H-benzo[b][1,4]oxazine-7-sulfonamide] | 174 | 31.5 | 1.14 | – |
| O=S(=O)(Nc1nccs1)c1ccc2c(c1)OCCN2c1ccc(C(F)(F)F)cc1C[C@H](O)CO (single isomer, unassigned) [Example 208] | 258 | 18.5 | 0.896 | – |
| C[C@@H]1CN(c2ccc(C(F)(F)F)cc2C#N)c2ccc(S(=O)(=O)Nc3nccs3)cc2O1 (single isomer, unassigned) [Example 95] | 293 | 70.5 | 6.67 | – |
| N#Cc1cc(C(F)(F)F)ccc1N1CCOc2cc(S(=O)(=O)Nc3ncco3)ccc21 [Example 90, 4-(2-Cyano-4-(Trifluoromethyl)Phenyl)-N-(Oxazol-2-Yl)-3,4-Dihydro-2H-Benzo[B][1,4]Oxazine-7-Sulfonamide] | 2590 | 924 | > 10 | – |
| Cc1ccc(C#N)c(N2CCOc3cc(S(=O)(=O)Nc4nccs4)ccc32)n1 [Example 135, 4-(3-Cyano-6-methylpyridin-2-yl)-N-(thiazol-2-yl)-3,4-dihydro-2H-benzo[b][1,4]oxazine-7-sulfonamide] | – | 2680 | > 10 | 22.6 |
| C[C@@H]1COc2cc(S(=O)(=O)Nc3nccs3)ccc2N1c1ccc(C(F)(F)F)cc1C#N (single isomer, unassigned) [Example 97] | 772 | 208 | 0.851 | – |
| O=S(=O)(Nc1nccs1)c1ccc2c(c1)OCCN2c1ccc(F)c(F)c1 [Example 84, 4-(3,4-Difluorophenyl)-N-(Thiazol-2-Yl)-3,4-Dihydro-2H-Benzo[B][1,4]Oxazine-7-Sulfonamide 2,2,2-Trifluoroacetate] | 3040 | 326 | 3.81 | – |
| Cc1ccc(F)cc1N1CCOc2cc(S(=O)(=O)Nc3nccs3)ccc21 [Example 79, 4-(5-Fluoro-2-Methylphenyl)-N-(Thiazol-2-Yl)-3,4-Dihydro-2H-Benzo[B][1,4]Oxazine-7-Sulfonamide 2,2,2-Trifluoroacetate] | 1180 | 216 | > 10 | – |
| O=S(=O)(Nc1nccs1)c1ccc2c(c1)OCCN2c1cccc(OC(F)(F)F)c1 [Example 185, N-(Thiazol-2-Yl)-4-(3-(Trifluoromethoxy)Phenyl)-3,4-Dihydro-2H-Benzo[B][1,4]Oxazine-7-Sulfonamide] | 2620 | 335 | 7.62 | – |
| Cn1nccc1-c1ccccc1N1CCOc2cc(S(=O)(=O)Nc3nccs3)ccc21 [Example 148, 4-(2-(1-Methyl-1H-pyrazol-5-yl)phenyl)-N-(thiazol-2-yl)-3,4-dihydro-2H-benzo[b][1,4]oxazine-7-sulfonamide] | 782 | 66.5 | > 10 | – |
| O=S(=O)(Nc1nccs1)c1ccc2c(c1)OCCN2c1cccc2cccnc12 [Example 166, 4-(Quinolin-8-Yl)-N-(Thiazol-2-Yl)-3,4-Dihydro-2H-Benzo[B][1,4]Oxazine-7-Sulfonamide 2,2,2-Trifluoroacetate] | 11100 | 683 | > 10 | – |
